# Experimental data from US8569372B2, “Method for preventing or treating a disease, disorder or condition induced by retina ischemia” (priority 2011, dated 2013).
# How the values were obtained:
# RGC-5 cells = assay: RGC-5 cell viability under H2O2 induced oxidative stress; type: cell-based; conditions: RGC5, then 500 μM H2O2 24 hours, H2O2 alone 42.05±6.10%, n=6, read-out: RGC-5 cell viability (control: 100%)
# Protocol: The RGC-5 cell line was obtained from the American Type Culture Collection (ATCC, No. CRL-2302, Manassas, Va., USA). The RGC-5 cell line represents a lineage of neuronal precursor cells. The RGC-5 cells were maintained in Dulbecco's modified Eagle's medium (DMEM; Falcon, Becton Dickinson, N.J., U.S.A.) containing 10% fetal calf serum, 100 U/mL penicillin and 100 μg/mL streptomycin (Sigma-Aldrich) in a humidified atmosphere of 95% air and 5% CO2 at 37° C. Cell viability was evaluated by counting the cell number using a haemocytometer under an optical microscope.
# In the enzyme-linked immunosorbent assay (ELISA), the cells (2.5×10^4 in each well) were plated into 96-well plates. Each well contains 200 μl of DMEM (control) without or with H2O2. Next, the cells were incubated at 37° C. for 1 day and then shifted to serum free medium for the following day. In order to stimulate oxidative stress, 500 μM H2O2 (Sigma-Aldrich 18304/k0250, St Louis, Mo., USA) was then added for 24 hours as described elsewhere. Depending on the experimental protocol, SAC or vehicle was added to some samples 15 minutes before adding H2O2.
# MMP-9 = assay: ELISA of MMP-9 protein in RGC-5 cells under H2O2 oxidative stress; type: cell-based; conditions: 100 μM SAC 15-minute pre-treatment, 500 μM H2O2 24 hours; control 29.33±4.93, H2O2 100.70±18.80; n=6
# Protocol: In the enzyme-linked immunosorbent assay (ELISA), the cells (2.5×10^4 in each well) were plated into 96-well plates. Each well contains 200 μl of DMEM (control) without or with H2O2. Next, the cells were incubated at 37° C. for 1 day and then shifted to serum free medium for the following day. In order to stimulate oxidative stress, 500 μM H2O2 (Sigma-Aldrich 18304/k0250, St Louis, Mo., USA) was then added for 24 hours as described elsewhere. Depending on the experimental protocol, SAC or vehicle was added to some samples 15 minutes before adding H2O2. […] Total protein was determined using a bicinchoninic acid protein kit (Thermo Fisher Scientific Inc., IL, U.S.A.). The HIF-1 Alpha/VEGF/MMP-9 levels in the cells/medium were measured using various ELISA kits, namely HIF-1 Alpha (Uscn Life Science Inc., Wuhan 430056, China); VEGF-A (BMS277/2, Bender […], Austria) and MMP-9 Duoset (D911, R&D, Minneapolis, Minn., U.S.A.). […] The HIF-1 Alpha/VEGF/MMP-9 concentration of each sample was determined by constructing a standard curve using 100 μl of sample diluent containing various amounts of HIF-1 Alpha/VEGF/MMP-9 pure protein (0-1000 pg/ml). […] The absorbance (optical intensity, O.D.) was detected at 450 nm by spectrophotometer (ELx800, Biotek, Winooski, Vt., U.S.A.). […]
smiles,measurement,setting,value
"C=CCSC[C@H](N)C(=O)O [SAC, S-allyl L-cysteine]",viability at 25 µM,RGC-5 cells; 25 μM SAC 15-minute pre-incubation,47.7 ± 4.53%
same,viability at 50 µM,RGC-5 cells; 50 μM SAC 15-minute pre-incubation,57.5 ± 3.48%
same,viability at 100 µM,RGC-5 cells; 100 μM SAC 15-minute pre-incubation,70.2 ± 3.32%
same,MMP-9 protein level (ELISA),MMP-9,52.55 ± 2.72 pg/mL
